Calls of active or inactive are those of the source.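 The calls were made as follows: active = at least one hamster carcinogenic potency value with a tumor site listed for any sex group; inactive = no potency or tumor site yet a negative hamster study.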

This data set relates to hamster chronic carcinogenicity bioassay, TD50. Put plainly: DSSTox (CPDBAS) Carcinogenic Potency Database Summary Hamster Bioassay Results. From the text:
The Carcinogenic Potency Database (CPDB) is a unique and widely used international resource of the results of over 6500 chronic, long-term animal cancer tests on over 1500 chemical substances. The CPDB provides easy access to the bioassay literature, with qualitative and quantitative analyses of both positive and negative experiments that have been published over the past 50 years in the general literature and by the National Cancer Institute/National Toxicology Program. The CPDB standardizes the diverse literature of cancer bioassays that vary widely in protocol, histopathological examination and nomenclature, and in the published author's choices of what information to provide in their papers. Results are reported in the CPDB for tests in rats, mice, hamsters, dogs, and nonhuman primates, and are based on the most positive result among all experiments for each sex-species. The DSSTox CPDBAS (all species) file incorporates data from the CPDB Summary Tables for the full list of over 1500 chemical substances tested in at least one species. Summary bioassay results for Hamster (TD50, tumor sites, male, female, both sexes) are provided in the CPDB Summary Tables and the DSSTox CPDBAS file for over 80 chemical substances.
TD50 is a standardized quantitative measure of carcinogenic potency (analogous to an LD50) and is reported in the CPDB Summary Table for each species. Activity Score for actives is computed by mapping of LOG10 (1/TD50_Hamster_mmol) activity values spanning range [MIN, MAX] onto Integer 1-100 Activity Score range, where 100 is highest potency and 1 is lowest: Activity Score = 100 * INTEGER[(log10(1/Activity) - MIN)/(MAX - MIN)]. If activity is reported but no TD50_Hamster_mmol value is computed, such as for a mixture, the Activity Score is assigned the activity value "50". […] Target sites are reported for each sex-species group with a positive result in the CPDB on the basis of a positive author's opinion for the particular site, using all results from both the general literature and NCI/NTP bioassays. If a chemical has two or more target sites listed, the results may be from different experiments, and a single site may be a target organ in more than one experiment, as well. Blank entry in TargetSites field indicates no results reported.
Turning to `CN(C)N`, the Potency was 124 mg/kg/day.
For the compound `C=CCl`, the Potency was 39.4 mg/kg/day.
As to `O=c1c(O)c(-c2ccc(O)c(O)c2)oc2cc(O)cc(O)c12`, the outcome is “inactive; no positive results”.
Regarding `Clc1c(Cl)c(Cl)c(Cl)c(Cl)c1Cl`, the Potency was 4.96 mg/kg/day.
Take `Clc1ccc(C(c2ccc(Cl)cc2)C(Cl)(Cl)Cl)cc1`: the outcome was “inactive; no positive results”.
On the same count and under the same terms, the entry for `O=[N+]([O-])c1ccc2c3c(cccc13)CC2` is “inactive”.
On to `C=CCN(CC(C)=O)N=O`, for which the Potency was 1.19 mg/kg/day.
With `C=C(C)C(=O)OC`, the outcome is “inactive; no positive results”.
`O=NN1CCCCC1`: the Potency was 83.3 mg/kg/day.
For `ClC(Cl)=C(c1ccc(Cl)cc1)c1ccc(Cl)cc1`, the Potency was 202 mg/kg/day.
On to `CC(=O)CN(CC(O)CO)N=O` (stereo not given), for which the Potency was 0.754 mg/kg/day.
The same measure, in the same setting: to `O=NN1CCOCC1` belongs 3.57 mg/kg/day.
For `CCOC(=O)N(C)N=O`, the Potency is 0.127 mg/kg/day.
For `CCC1(c2ccccc2)C(=O)NC(=O)NC1=O`, the outcome was “inactive; no positive results”.
Turning to `C=O`, the outcome is “inactive; no positive results”.
For `[Cd+2].[Cl-].[Cl-]`, the outcome was “inactive; no positive results”.
With `CC=O`, the Potency is 565 mg/kg/day.
On the same count and under the same terms, the figure for `CC(=O)Nc1ccc2c(c1)Cc1ccccc1-2` is 17.4 mg/kg/day.
As for `O=C(O)c1ccncc1`, the outcome is “inactive; no positive results”.
Regarding `CC(C)OC(=O)Nc1ccccc1`, the outcome was “inactive; no positive results”.
Still for that read-out and setting: the entry for `CC(C)OC(=O)Nc1cccc(Cl)c1` is “inactive; no positive results”; for `F[B-](F)(F)F` it is “inactive; no positive results”.
In the case of `S=C=NCCc1ccccc1`, the result was inactive.
For `CNN`, the Potency was 11.5 mg/kg/day.
Still for that read-out and setting: to `O=NN1CCOC1` belongs 0.798 mg/kg/day.
As to `NNC(=O)c1ccncc1`, the outcome was “inactive; no positive results”.
On to `COC1=CC(=O)C[C@@H](C)[C@]12Oc1c(Cl)c(OC)cc(OC)c1C2=O`, for which the outcome was “inactive; no positive results”.
As to `CN(C)CCN(C)N=O`, the Potency was 3.83 mg/kg/day.
Take `O=NN1CCCC1c1cccnc1` (stereo not given): the Potency is 10.8 mg/kg/day.
In the case of `COc1ccc(O)c(C(C)(C)C)c1`, the outcome was “inactive; no positive results”.
In the case of `CC(=O)CN(N=O)C(N)=O`, the Potency is 0.13 mg/kg/day.
For `O=NN1CCCC1c1ccc[n+]([O-])c1` (stereo not given), the outcome was “inactive; no positive results”.
For the compound `O=CNc1nc(-c2ccc([N+](=O)[O-])o2)cs1`, the Potency is 9.77 mg/kg/day.
Still for that read-out and setting: the figure for `CN(CC(O)CO)N=O` (stereo not given) is 0.94 mg/kg/day.
Take `CC(C)(Oc1ccc(C2CCCc3ccccc32)cc1)C(=O)O` (stereo not given): the outcome is “inactive; no positive results”.
For the compound `CCO`, the outcome is “inactive; no positive results”.
As for `NC(=O)N(CCc1ccccc1)N=O`, the Potency is 0.964 mg/kg/day.
On to `O=NO`, for which the outcome is “inactive; no positive results”.
In the case of `N#[N+]c1ccccc1`, the outcome was “inactive; no positive results”.
`COCCl`: the Potency was 16.4 mg/kg/day.
Regarding `CCOC(N)=O`, the Potency is 65.2 mg/kg/day.
In the case of `NN`, the Potency was 4.16 mg/kg/day.
For `ClC1=C(Cl)[C@]2(Cl)[C@@H]3[C@@H]4C[C@@H]([C@H]5O[C@@H]45)[C@@H]3[C@@]1(Cl)C2(Cl)Cl`, the outcome was “inactive; no positive results”.
For `Nc1ncn[nH]1`, the outcome was “inactive; no positive results”.
Consider `CN(Cc1cnc2nc(N)nc(N)c2n1)c1ccc(C(=O)N[C@@H](CCC(=O)O)C(=O)O)cc1`, for which the outcome was “inactive; no positive results”.
With `CN(C)CCN(Cc1cccs1)c1ccccn1`, the outcome was “inactive; no positive results”.
For `O=NN1CCCC1`, the Potency was 14.2 mg/kg/day.
Regarding `CCN(N=O)C(=O)NCC(C)=O`, the Potency was 0.443 mg/kg/day.
Turning to `CC(O)CN(CC(O)CO)N=O` (stereo not given), the Potency is 1.59 mg/kg/day.
Same read-out and setting: the figure for `CC(=O)CN(N=O)C(=O)NCCCl` is 0.338 mg/kg/day; for `CN(N)C=O` it is 5.8 mg/kg/day.
Take `O=S(=O)([O-])[O-].[Cd+2]`: the outcome is “inactive; no positive results”.
In the case of `OCC1CO1` (stereo not given), the Potency was 56.1 mg/kg/day.
Take `N=C1C=CC(=C(c2ccc(N)cc2)c2ccc(N)cc2)C=C1`: the outcome is “inactive; no positive results”.
Consider `O=C(O)c1ccc(O)c(O)c1`, for which the outcome was inactive.
As for `CCN(N=O)C(=O)NCCO`, the Potency is 1.04 mg/kg/day.
As to `CC1CN(N=O)C(=O)O1` (stereo not given), the Potency is 0.172 mg/kg/day.
Turning to `CN(CCCC(=O)c1cccnc1)N=O`, the outcome was inactive.
With `CC1CN(N=O)CC(C)N1C` (stereo not given), the Potency was 1.32 mg/kg/day.
In the case of `CC(=O)CN(CCO)N=O`, the Potency was 0.997 mg/kg/day.
For `CC1=CC(=C(c2ccc(N)cc2)c2ccc(N)cc2)C=CC1=N`, the outcome is “inactive; no positive results”.
As to `O=C(C1CCCCC1)N1CC(=O)N2CCc3ccccc3C2C1` (stereo not given), the outcome is “inactive; no positive results”.
With `O=Cc1ccco1`, the outcome is “inactive; no positive results”.
In the case of `[O-][Br+2]([O-])O`, the Potency is 533 mg/kg/day.
For `CC(C)(OCc1ccc(-c2ccc(Cl)cc2)cc1)C(=O)O`, the outcome is “inactive; no positive results”.
In the case of `NC(=O)/C(=C\c1ccc([N+](=O)[O-])o1)c1ccco1`, the Potency is 164 mg/kg/day.
On to `CN(C)C(=O)Cl`, for which the Potency was 0.625 mg/kg/day.
Regarding `c1ccc(Nc2ccc3ccccc3c2)cc1`, the outcome is “inactive; no positive results”.
On to `C=CC(=C)Cl`, for which the outcome was “inactive; no positive results”.
Consider `O=NN1CCC1`, for which the Potency was 7.14 mg/kg/day.
Turning to `CC1CN(N=O)CC(C)O1` (stereo not given), the Potency was 2 mg/kg/day.
As to `O=c1ccc2ccccc2o1`, the outcome was “inactive; no positive results”.
With `ClC=C(Cl)Cl`, the outcome was “inactive; no positive results”.
As for `CC(=O)Nc1nc(-c2ccc([N+](=O)[O-])o2)cs1`, the Potency is 8.91 mg/kg/day.
Turning to `C=CCN(CC=C)N=O`, the Potency was 1.54 mg/kg/day.
For `O=NN(CCO)CC(O)CO` (stereo not given), the result was inactive.
For `CNNC`, the Potency was 0.179 mg/kg/day.
In the case of `C[C@@H]1O[C@@H](OC[C@H]2O[C@@H](Oc3c(-c4ccc(O)c(O)c4)oc4cc(O)cc(O)c4c3=O)[C@H](O)[C@@H](O)[C@@H]2O)[C@H](O)[C@H](O)[C@H]1O`, the outcome was “inactive; no positive results”.
Take `CC1CN(N=O)CC(C)N1N=O` (stereo not given): the Potency was 3.1 mg/kg/day.
On to `CC(=O)N(O)c1ccc2c(c1)Cc1ccccc1-2`, for which the Potency is 2.1 mg/kg/day.
`O=CNNc1nc(-c2ccc([N+](=O)[O-])o2)cs1`: the Potency is 16.6 mg/kg/day.
For the compound `Cc1cc(=O)[nH]c(=S)[nH]1`, the Potency was 53.4 mg/kg/day.
With `O=S(=O)(O)O`, the Potency was 118 mg/kg/day.
As for `Cc1cccc(Nc2cc(Cl)nc(SCC(=O)O)n2)c1C`, the outcome is “inactive; no positive results”.
As to `NNCCO`, the outcome was “inactive; no positive results”.

Source of the values: PubChem BioAssay AID1191 (EPA DSSTox, 2008).
